Data from ChEMBL document CHEMBL3091280, “Synthesis and Cytotoxicity of Semisynthetic Withalongolide A Analogues” (ACS Med Chem Lett, 2013).

Columns and labels:
SK-MEL-28 = test: Cytotoxicity against human SK-MEL-28 cells after 72 hrs by MTS assay; format: functional, cell-based; details: SK-MEL-28, 72 h
MRC5 = test: Cytotoxicity against human MRC5 cells after 72 hrs by MTS assay; format: cell-based; details: MRC5, 72 h
[1] = Cytotoxicity against human JMAR cells after 72 hrs by MTS assay; format: functional, cell-based
MDA-MB-231 = test: Cytotoxicity against human MDA-MB-231 cells after 72 hrs by MTS assay; format: functional, cell-based; details: MDA-MB-231, 72 h
[2] = Cytotoxicity against human DRO 81-1 cells after 72 hrs by MTS assay; format: functional, cell-based

Structure (SMILES): CC1=C(CO)C(=O)O[C@@H]([C@@H](C)[C@H]2CC[C@H]3[C@@H]4C[C@H]5O[C@]56[C@@H](O)C=CC(=O)[C@]6(CO)[C@H]4CC[C@]23C)C1
- IC50 (SK-MEL-28): 1600 nM
- IC50 (MRC5): 5300 nM
- IC50 [1]: 3100 nM
- IC50 (MDA-MB-231): 1500 nM
- IC50 [2]: 1700 nM

Structure (SMILES): CC(=O)OCC1=C(C)C[C@H]([C@@H](C)[C@H]2CC[C@H]3[C@@H]4C[C@H]5O[C@]56[C@@H](OC(C)=O)C=CC(=O)[C@]6(COC(C)=O)[C@H]4CC[C@]23C)OC1=O
- IC50 (SK-MEL-28): 110 nM
- IC50 (MRC5): 310 nM
- IC50 [1]: 655 nM
- IC50 (MDA-MB-231): 655 nM
- IC50 [2]: 110 nM

Structure (SMILES): CC(=O)OCC1=C(C)C[C@H]([C@@H](C)[C@H]2CC[C@H]3[C@@H]4C[C@H]5O[C@]56[C@@H](OC(C)=O)C=CC(=O)[C@]6(CO)[C@H]4CC[C@]23C)OC1=O
- IC50 (SK-MEL-28): 170 nM
- IC50 (MRC5): 295 nM
- IC50 [1]: 600 nM
- IC50 (MDA-MB-231): 635 nM
- IC50 [2]: 58 nM

Structure (SMILES): CC(=O)OC[C@]12C(=O)C=C[C@H](OC(=O)c3ccc(Cl)cc3)[C@]13O[C@@H]3C[C@H]1[C@@H]3CC[C@H]([C@H](C)[C@H]4CC(C)=C(COC(=O)c5ccc(Cl)cc5)C(=O)O4)[C@@]3(C)CC[C@@H]12
- IC50 (SK-MEL-28): ≥ 10000 nM
- IC50 (MRC5): ≥ 10000 nM
- IC50 [1]: ≥ 10000 nM
- IC50 (MDA-MB-231): ≥ 10000 nM
- IC50 [2]: ≥ 10000 nM

Structure (SMILES): CC(=O)OCC1=C(C)C[C@H]([C@@H](C)[C@H]2CC[C@H]3[C@@H]4C[C@H]5O[C@]56[C@@H]5C=CC(=O)[C@]6(COC(=O)CC/C=C/CCC(=O)O5)[C@H]4CC[C@]23C)OC1=O
- IC50 (SK-MEL-28): 205 nM
- IC50 (MRC5): 360 nM
- IC50 [1]: 965 nM
- IC50 (MDA-MB-231): 245 nM
- IC50 [2]: 225 nM

Structure (SMILES): C=CCCC(=O)OC[C@]12C(=O)C=C[C@H](OC(=O)CCC=C)[C@]13O[C@@H]3C[C@H]1[C@@H]3CC[C@H]([C@H](C)[C@H]4CC(C)=C(COC(C)=O)C(=O)O4)[C@@]3(C)CC[C@@H]12
- IC50 (SK-MEL-28): 470 nM
- IC50 (MRC5): 865 nM
- IC50 [1]: 1440 nM
- IC50 (MDA-MB-231): 625 nM
- IC50 [2]: 580 nM

Structure (SMILES): CC(=O)OCC1=C(C)C[C@H]([C@@H](C)[C@H]2CC[C@H]3[C@@H]4C[C@H]5O[C@]56[C@@H](OC(C)=O)C=C(I)C(=O)[C@]6(COC(C)=O)[C@H]4CC[C@]23C)OC1=O
- IC50 (SK-MEL-28): 275 nM
- IC50 (MRC5): 475 nM
- IC50 [1]: 830 nM
- IC50 (MDA-MB-231): 210 nM
- IC50 [2]: 115 nM

Structure (SMILES): CC1=C(CO)C(=O)O[C@@H]([C@@H](C)[C@H]2CC[C@H]3[C@@H]4C[C@H]5O[C@]56[C@@H](O)C=C(I)C(=O)[C@]6(CO)[C@H]4CC[C@]23C)C1
- IC50 (SK-MEL-28): 9110 nM
- IC50 (MRC5): 9100 nM
- IC50 [1]: > 10000 nM
- IC50 (MDA-MB-231): > 10000 nM
- IC50 [2]: 5250 nM

Structure (SMILES): CC(=O)OCC1=C(C)C[C@H]([C@@H](C)[C@H]2CC[C@H]3[C@@H]4C[C@@H](OC(C)=O)C5=CC=CC(=O)[C@]5(COC(C)=O)[C@H]4CC[C@]23C)OC1=O
- IC50 (SK-MEL-28): ≥ 10000 nM
- IC50 (MRC5): ≥ 10000 nM
- IC50 [1]: ≥ 10000 nM
- IC50 (MDA-MB-231): ≥ 10000 nM
- IC50 [2]: ≥ 10000 nM

Structure (SMILES): CC(=O)OCC1=C(C)C[C@H]([C@@H](C)[C@H]2CC[C@H]3[C@@H]4C[C@@H](O)[C@@]5(Cl)CC=CC(=O)[C@]5(COC(C)=O)[C@H]4CC[C@]23C)OC1=O
- IC50 (SK-MEL-28): 1170 nM
- IC50 (MRC5): 3150 nM
- IC50 [1]: 2160 nM
- IC50 (MDA-MB-231): 800 nM
- IC50 [2]: 1350 nM

Structure (SMILES): CC(=O)OCC1=C(C)C[C@H]([C@@H](C)[C@H]2CC[C@H]3[C@@H]4C[C@@H](O)C5=CC=CC(=O)[C@]5(COC(C)=O)[C@H]4CC[C@]23C)OC1=O
- IC50 (SK-MEL-28): ≥ 10000 nM
- IC50 (MRC5): ≥ 10000 nM
- IC50 [1]: ≥ 10000 nM
- IC50 (MDA-MB-231): ≥ 10000 nM
- IC50 [2]: ≥ 10000 nM

Structure (SMILES): CC(=O)OCC1=C(C)C[C@H]([C@@H](C)[C@H]2CC[C@H]3[C@@H]4C[C@H]5O[C@]56CC=CC(=O)[C@]6(COC(C)=O)[C@H]4CC[C@]23C)OC1=O
- IC50 (SK-MEL-28): 710 nM
- IC50 (MRC5): 2050 nM
- IC50 [1]: 1220 nM
- IC50 (MDA-MB-231): 790 nM
- IC50 [2]: 1100 nM

Structure (SMILES): CC(=O)OCC1=C(C)C[C@H]([C@@H](C)[C@H]2CC[C@H]3[C@@H]4C[C@H]5O[C@]56[C@@H](OC(=O)N(C)C)C=CC(=O)[C@]6(COC(C)=O)[C@H]4CC[C@]23C)OC1=O
- IC50 (SK-MEL-28): 205 nM
- IC50 (MRC5): 510 nM
- IC50 [1]: 970 nM
- IC50 (MDA-MB-231): 175 nM
- IC50 [2]: 86.5 nM

Structure (SMILES): CC1=C(CO)C(=O)O[C@@H]([C@@H](C)[C@H]2CC[C@H]3[C@@H]4C[C@H]5O[C@]56[C@@H](OC(=O)N(C)C)C=CC(=O)[C@]6(CO)[C@H]4CC[C@]23C)C1
- IC50 (SK-MEL-28): 515 nM
- IC50 (MRC5): 1750 nM
- IC50 [1]: 2090 nM
- IC50 (MDA-MB-231): 610 nM
- IC50 [2]: 585 nM

Structure (SMILES): CC1=C(COC(=O)c2ccc(Cl)cc2)C(=O)O[C@@H]([C@@H](C)[C@H]2CC[C@H]3[C@@H]4C[C@H]5O[C@]56[C@@H](OC(=O)c5ccc(Cl)cc5)C=CC(=O)[C@]6(COC(=O)c5ccc(Cl)cc5)[C@H]4CC[C@]23C)C1
- IC50 (SK-MEL-28): ≥ 10000 nM
- IC50 (MRC5): ≥ 10000 nM
- IC50 [1]: ≥ 10000 nM
- IC50 (MDA-MB-231): ≥ 10000 nM
- IC50 [2]: ≥ 10000 nM

Structure (SMILES): CC1=C(COC(=O)c2ccc(Cl)cc2)C(=O)O[C@@H]([C@@H](C)[C@H]2CC[C@H]3[C@@H]4C[C@H]5O[C@]56[C@@H](OC(=O)c5ccc(Cl)cc5)C=CC(=O)[C@]6(CO)[C@H]4CC[C@]23C)C1
- IC50 (SK-MEL-28): ≥ 10000 nM
- IC50 (MRC5): ≥ 10000 nM
- IC50 [1]: ≥ 10000 nM
- IC50 (MDA-MB-231): ≥ 10000 nM
- IC50 [2]: ≥ 10000 nM

Structure (SMILES): CC1=C(COC(=O)c2ccc(Cl)cc2)C(=O)O[C@@H]([C@@H](C)[C@H]2CC[C@H]3[C@@H]4C[C@H]5O[C@]56[C@@H](O)C=CC(=O)[C@]6(COC(=O)c5ccc(Cl)cc5)[C@H]4CC[C@]23C)C1
- IC50 (SK-MEL-28): 1110 nM
- IC50 (MRC5): 2350 nM
- IC50 [1]: 4640 nM
- IC50 (MDA-MB-231): 2620 nM
- IC50 [2]: 1900 nM

Structure (SMILES): CC1=C(CO)C(=O)O[C@@H]([C@@H](C)[C@H]2CC[C@H]3[C@@H]4C[C@H]5O[C@]56[C@@H](OC(=O)c5ccc(Cl)cc5)C=CC(=O)[C@]6(CO)[C@H]4CC[C@]23C)C1
- IC50 (SK-MEL-28): 2250 nM
- IC50 (MRC5): 2550 nM
- IC50 [1]: 1720 nM
- IC50 (MDA-MB-231): 1400 nM
- IC50 [2]: 1850 nM

Structure (SMILES): CCC(=O)OCC1=C(C)C[C@H]([C@@H](C)[C@H]2CC[C@H]3[C@@H]4C[C@H]5O[C@]56[C@@H](OC(=O)CC)C=CC(=O)[C@]6(COC(=O)CC)[C@H]4CC[C@]23C)OC1=O
- IC50 (SK-MEL-28): 285 nM
- IC50 (MRC5): 615 nM
- IC50 [1]: 1000 nM
- IC50 (MDA-MB-231): 365 nM
- IC50 [2]: 130 nM

Structure (SMILES): CC(=O)OCC1=C(C)C[C@H]([C@@H](C)[C@H]2CC[C@H]3[C@@H]4C[C@H]5O[C@]56[C@@H](O)C=CC(=O)[C@]6(COC(C)=O)[C@H]4CC[C@]23C)OC1=O
- IC50 (SK-MEL-28): 230 nM
- IC50 (MRC5): 490 nM
- IC50 [1]: 515 nM
- IC50 (MDA-MB-231): 205 nM
- IC50 [2]: 155 nM

Structure (SMILES): CC(=O)O[C@H]1C=CC(=O)[C@]2(CO)[C@H]3CC[C@]4(C)[C@@H]([C@H](C)[C@H]5CC(C)=C(CO)C(=O)O5)CC[C@H]4[C@@H]3C[C@H]3O[C@]132
- IC50 (SK-MEL-28): 1220 nM
- IC50 (MRC5): 1200 nM
- IC50 [1]: 2480 nM
- IC50 (MDA-MB-231): 890 nM
- IC50 [2]: 570 nM

Structure (SMILES): CC(=O)OC[C@]12C(=O)C=C[C@H](O)[C@]13O[C@@H]3C[C@H]1[C@@H]3CC[C@H]([C@H](C)[C@H]4CC(C)=C(CO)C(=O)O4)[C@@]3(C)CC[C@@H]12
- IC50 (SK-MEL-28): 1230 nM
- IC50 (MRC5): 1800 nM
- IC50 [1]: 3060 nM
- IC50 (MDA-MB-231): 1150 nM
- IC50 [2]: 780 nM

Structure (SMILES): CC(=O)OCC1=C(C)C[C@H]([C@@H](C)[C@H]2CC[C@H]3[C@@H]4C[C@H]5O[C@]56[C@@H](O)C=CC(=O)[C@]6(CO)[C@H]4CC[C@]23C)OC1=O
- IC50 (SK-MEL-28): 705 nM
- IC50 (MRC5): 2300 nM
- IC50 [1]: 1220 nM
- IC50 (MDA-MB-231): 415 nM
- IC50 [2]: 1050 nM

Structure (SMILES): CC1=C(CO)C(=O)O[C@@H]([C@@H](C)[C@H]2CC[C@H]3[C@@H]4C[C@H]5O[C@]56[C@@H](O)C=CC(=O)[C@]6(C)[C@H]4CC[C@]23C)C1 [WITHAFERIN A]
- IC50 (SK-MEL-28): 1000 nM
- IC50 (MRC5): 2700 nM
- IC50 [1]: 1000 nM
- IC50 (MDA-MB-231): 540 nM
- IC50 [2]: 780 nM
